From patent US20260130928A1, “COMBINATION OF AKR1C3 ACTIVATED ANTICANCER PRODRUG COMPOUND AND ANALGESIC DRUG FOR TREATING CANCER PATIENTS ACCOMPANIED BY PAIN” (ASCENTAWITS PHARMACEUTICALS, LTD., priority 2022, published 2026)
Read-outs that look alike come from different tables or passages of the source.

Columns and labels:
[1] = tested on: AKR1C3; details: reported in literature; cited from earlier work
[2] = tested on: H460 cell line; test: In vitro cell proliferation inhibition with the drug combination (CTG method); type: cell-based, human; details: combined with AST-3424
Procedure: • a) H460 cells (human non-small lung cancer cells, AKR1C3 enzyme highly expressed) were cultured in RPMI-1640 medium, added with 10% FBS and 1% double antibody, and placed at 37° C. and 5% CO2 for culturing.
• a) The cells were routinely cultured until the cell saturation was 80%-90%, and when the required quantity was reached, the cells were collected. • b) The cells were resuspended with the corresponding medium and cell counts were performed to prepare a cell suspension with appropriate density. • c) The cell suspension was added to a 96-well plate with 100 μL per well, and the cell density was 2,000 cells per well. • d) The cells were incubated overnight in an incubator at 37° C. with 5% CO2. 1.1.3 Treating Cells with Compound (72 Hours)
AST-3424 alone: after 24 hours of cell seeding, AST-3424 was administered alone. Specifically, each well was supplemented with 99 μL of growth medium, and then added with 1 μL of the prepared AST-3424 solution to form different concentrations of AST-3424. The plate was shaken gently to ensure uniform mixing, and placed in an incubator at 37° C. with 5% CO2.
The cell plates were placed in the incubator for 72 hours.
1.1.4 Treating Cells with Compound (2 Hours) • a) Administrating single drug: after 24 hours of cell seeding, AST-3424 was administered alone. Specifically, each well was supplemented with 99 μL of growth medium, and then added with 1 μL of the prepared AST-3424 solution to form different concentrations of AST-3424. The plate was shaken gently to ensure uniform mixing, and placed in the incubator for 2 hours. […] The plate was shaken gently to ensure uniform mixing. After the plate was placed in the incubator for 2 hours, 1 μL of the prepared AST-3424 solution was added to form different concentrations of AST-3424. The plate was shaken gently to ensure uniform mixing, and placed in the incubator at 37° C. with 5% CO2 for another 2 hours. Then, the supernatant was discarded, and the remainder was washed twice with growth medium and added with 200 μL of fresh medium.
1.1.6 Detecting with CTG Method • a) The cell plate to be tested was placed at room temperature to equilibrium for 30 minutes, and 100 μL of culture medium was discarded from each well. • b) 25 μL CTG reagent (CelltiterGlo kit) was added to each well. The plate was placed on a fast shaker to shake for 2 minutes, and then placed at room temperature away from light for 30 minutes. • c) The chemiluminescent signal value was read with multifunctional microplate reader at reading time of 1000 ms.
IC50 was calculated with GraphPad Prism 5 software, and the IC50 (half maximal inhibitory concentration) of the compound was obtained using the following nonlinear fitting formula: […]

[3] = tested on: H460 cell line; test: Cell proliferation inhibition by combining Naproxen or TH-3021 and AST-3424 in different sequence of administration (CTG); type: cell-based, human; details: for effect of subsequent addition on the efficacy of AST-3424: Group 3: added after 2 h AST-3424 pretreatment and washing
Procedure: The following are the different treatment methods. […] The plate was shaken gently to ensure uniform mixing, and placed in the incubator for 2 hours. […] The plate was shaken gently to ensure uniform mixing, and placed in the incubator for 2 hours. Subsequently, the plate was washed to remove the compound, and placed in the incubator at 37° C. with 5% CO2 for further 72 hours. […] The plate was shaken gently to ensure uniform mixing, and placed in the incubator for 2 hours. Subsequently, the plate was washed to remove the compounds, and placed in the incubator at 37° C. with 5% CO2 for 72 hours. […] The plate was shaken gently to ensure uniform mixing, and placed in the incubator for 2 hours. […] The plate was shaken gently to ensure uniform mixing, and placed in the incubator for 2 hours. Subsequently, the plate was washed to remove the compounds, and placed in the incubator at 37° C. with 5% CO2 for further 72 hours. […] The plate was shaken gently to ensure uniform mixing, and placed in the incubator for 2 hours. […] The plate was shaken gently to ensure uniform mixing, and placed in the incubator for 2 hours. Subsequently, the plate was washed to remove the compounds, and placed in the incubator at 37° C. with 5% CO2 for further 72 hours. b) Administrating single drug: after 24 hours of cell seeding, the compound was administered alone. […] The plate was shaken gently to ensure uniform mixing, and placed in the incubator at 37° C. with 5% CO2 for 2 hours. Subsequently, the compound was washed off, and each well was added with fresh medium. The plate was placed in the incubator at 37° C. with 5% CO2 for further 72 hours.

[4] = cited from earlier work; for AUC0-t / Cmax / T1/2 / Tmax: patients, mean
[5] = OBI-3424 dose level 1 mg/m^2, infusion
[6] = OBI-3424 dose level 2 mg/m^2, infusion
[7] = OBI-3424 dose level 4 mg/m^2, infusion
[8] = OBI-3424 dose level 6 mg/m^2, infusion
[9] = OBI-3424 dose level 8 mg/m^2, infusion
[10] = OBI-3424 dose level 10 mg/m^2, infusion
[11] = OBI-3424 dose level 12 mg/m^2, infusion
[12] = OBI-3424 dose level 14 mg/m^2, infusion

CC(=O)Oc1ccccc1C(=O)O [Aspirin]
AKR1C3 inhibitory activity [1]: have AKR1C3 inhibitory activity

COc1ccc2cc([C@H](C)C(=O)O)ccc2c1 [Naproxen, reference compound]
effect of the combination on the cell proliferation inhibitory activity of AST-3424 [2]: significantly affect | AKR1C3 inhibitory activity [1]: have AKR1C3 inhibitory activity | effect of subsequent addition on the efficacy of AST-3424 [3]: no longer affected the efficacy of AST-3424

Cc1cccc(Nc2ccccc2C(=O)O)c1C [Mefenamic acid]
AKR1C3 inhibitory activity [1]: have AKR1C3 inhibitory activity

COc1ccc2c(c1)c(CC(=O)O)c(C)n2C(=O)c1ccc(Cl)cc1 [Indomethacin]
AKR1C3 inhibitory activity [1]: has AKR1C3 inhibitory activity

CC(C(=O)O)c1cccc(Oc2ccccc2)c1 (stereo not shown) [Fenoprofen]
AKR1C3 inhibitory activity [1]: have AKR1C3 inhibitory activity

CC(=O)Nc1ccc(O)cc1 [Paracetamol]
AKR1C3 inhibitory activity [1]: have AKR1C3 inhibitory activity

Cc1cc(CC(=O)O)n(C)c1C(=O)c1ccc(Cl)cc1 [Zomepirac]
AKR1C3 inhibitory activity [1]: have AKR1C3 inhibitory activity

O=C(N1CCOCC1)N1CCN(c2ccc(Cl)cc2Cl)CC1 [TH-3021, reference compound]
AKR1C3 inhibitory activity [1]: specific inhibitor of AKR1C3 | effect of subsequent addition on the efficacy of AST-3424 [3]: no longer affected the efficacy of AST-3424 | difference in IC50 values of AST-3424 (fold) ([3]; group 1 (TH-3021 pretreatment, washed off)): 6 fold | difference in IC50 values of AST-3424 (fold) ([3]; groups 2 and 4 (TH-3021 present together with AST-3424)): 200 fold

CC(C(=O)O)c1ccc(-c2ccccc2)c(F)c1 (stereo not shown) [Flurbiprofen]
AKR1C3 inhibitory activity [1]: have AKR1C3 inhibitory activity

O=C([O-])c1ccccc1O.[Na+] [Sodium salicylate]
AKR1C3 inhibitory activity [1]: have AKR1C3 inhibitory activity

CC1=C(CC(=O)O)c2cc(F)ccc2/C1=C\c1ccc([S+](C)[O-])cc1 (stereo not shown) [Sulindac]
AKR1C3 inhibitory activity [1]: have AKR1C3 inhibitory activity

Cc1ccc(C(=O)c2ccc(CC(=O)O)n2C)cc1 [Tolmetin]
AKR1C3 inhibitory activity [1]: have AKR1C3 inhibitory activity

O=P(O)(N1CC1)N1CC1 [OBI-2660]
AUC0-t [4, 5]: 7.30 ng·h/mL | Cmax [4, 5]: 1.70 ng/mL | T1/2 [4, 5]: 3.08 h | Tmax [4, 5]: 1.75 h | AUC0-t [4, 6]: 10.00 ng·h/mL | Cmax [4, 6]: 2.30 ng/mL | T1/2 [4, 6]: 2.48 h | Tmax [4, 6]: 1.67 h | AUC0-t [4, 7]: 19.30 ng·h/mL | Cmax [4, 7]: 5.00 ng/mL | T1/2 [4, 7]: 2.00 h | Tmax [4, 7]: 1.33 h | AUC0-t [4, 8]: 27.40 ng·h/mL | Cmax [4, 8]: 6.80 ng/mL | T1/2 [4, 8]: 2.09 h | Tmax [4, 8]: 1.75 h | AUC0-t [4, 9]: 32.80 ng·h/mL | Cmax [4, 9]: 8.50 ng/mL | T1/2 [4, 9]: 1.87 h | Tmax [4, 9]: 1.44 h | AUC0-t [4, 10]: 29.20 ng·h/mL | Cmax [4, 10]: 10.10 ng/mL | T1/2 [4, 10]: 2.99 h | Tmax [4, 10]: 1.67 h | AUC0-t [4, 11]: 56.60 ng·h/mL | Cmax [4, 11]: 13.10 ng/mL | T1/2 [4, 11]: 2.41 h | Tmax [4, 11]: 1.53 h | AUC0-t [4, 12]: 45.60 ng·h/mL | Cmax [4, 12]: 11.20 ng/mL | T1/2 [4, 12]: 2.46 h | Tmax [4, 12]: 1.75 h | accumulation of exposure (Cmax and AUC) ([4]; between the two doses (Cycle 1 Day1 and Cycle 1 Day8)): no accumulation of exposure

O=C(O)Cc1ccccc1Nc1c(Cl)cccc1Cl [Diclofenac]
AKR1C3 inhibitory activity [1]: have AKR1C3 inhibitory activity

Cc1ccc(Cl)c(Nc2ccccc2C(=O)O)c1Cl [Meclofenamic Acid]
AKR1C3 inhibitory activity [1]: have AKR1C3 inhibitory activity
